The values below come from patent US9573957B2 (Boehringer Ingelheim International GmbH, priority 2013, dated 2017).

For one assay, the target named is human LTA4 hydrolase (Homo sapiens (Human), UniProt P09960). Kind of assay: LTA4H Enzyme assay (peptidase, Arg-AMC cleavage). The class given is biochemical. Conditions: LTA4H Enzyme 1 nM, Arg-AMC substrate 50 μM, room temperature 1 h, fluorescence. As to the method: The compounds of the invention are assessed for the ability to interact with human LTA4 hydrolase in an enzymatic assay that measures the ability of the enzyme to cleave the peptide bond of arginyl-aminomethylcoumarin (Arg-AMC). LTA4H Enzyme (1 nM final), Arg-AMC substrate (50 μM final), and compound are combined in a reaction buffer (50 mM Tris-HCl (pH 7.5), 100 mM KCl, 0.5% bovine serum albumin) at room temperature for 1 h. The formation of product is assessed by measuring the fluorescence of aminomethylcoumarin product (excitation wavelength 380 nm/emission wavelength 460 nm).
Chain of human LTA4 hydrolase (P09960 whole entry): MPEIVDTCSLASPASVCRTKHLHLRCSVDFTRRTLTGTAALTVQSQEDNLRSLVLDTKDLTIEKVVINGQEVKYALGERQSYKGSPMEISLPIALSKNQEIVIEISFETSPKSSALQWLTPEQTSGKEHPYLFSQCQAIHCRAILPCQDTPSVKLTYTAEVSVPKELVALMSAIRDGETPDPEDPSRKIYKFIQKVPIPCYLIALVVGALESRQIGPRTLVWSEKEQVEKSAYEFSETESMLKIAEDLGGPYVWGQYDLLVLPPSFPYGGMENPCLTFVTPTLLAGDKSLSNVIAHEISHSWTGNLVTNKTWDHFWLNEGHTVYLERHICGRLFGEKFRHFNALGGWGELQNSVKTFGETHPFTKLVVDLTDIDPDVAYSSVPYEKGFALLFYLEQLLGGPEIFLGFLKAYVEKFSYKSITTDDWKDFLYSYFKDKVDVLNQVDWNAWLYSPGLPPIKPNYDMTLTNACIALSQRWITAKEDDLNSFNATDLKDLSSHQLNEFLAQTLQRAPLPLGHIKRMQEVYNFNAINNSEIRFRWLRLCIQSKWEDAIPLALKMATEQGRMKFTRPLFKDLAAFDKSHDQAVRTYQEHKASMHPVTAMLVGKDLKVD

Assay [1] relates to synthesis of LTB4 in human whole blood. The assay is described as follows: LTB4 production inhibition assay in human whole blood (HWB). Type of assay: cell-based. Conditions: heparinized human whole blood, 15 min at 37° C., Calcimycin 20 μM 30 min, plasma LTB4 by HTRF. As to the method:
The compounds of the invention are additionally tested in a human whole blood (HWB) assay to determine their ability to inhibit the synthesis of LTB4 in a cellular system. Compounds are combined with heparinized human whole blood and incubated for 15 minutes at 37° C. Calcimycin (20 μM final, prepared in phosphate-buffered saline, pH 7.4) is then added and the mixture is incubated for another 30 minutes at 37° C. The samples are centrifuged for 5 min at low speed (1500×g) and the plasma layer is removed. Plasma LTB4 concentrations are then measured using an antibody-based homogenous time-resolved fluorescence method (CisBio, Bedford, Mass.).
On the technique in general: In TR-FRET formats the signal depends on donor and acceptor labels being close together.

Each structure is given as a SMILES string.

For `CC(=O)NC1CCN(Cc2ccc3cc(Oc4ncc(-c5ccn[nH]5)cn4)ccc3c2)CC1` [Example 28, N-(1-{6-[5-(2H-Pyrazol-3-yl)-pyrimidin-2-yloxy]-naphthalen-2-ylmethyl}-piperidin-4-yl)-acetamide], the IC50 (as a rule, the concentration needed to halve the response being measured) at human LTA4 hydrolase stood at 1.8 nM; in assay [1], 270 nM.

Regarding `O=C1[C@@H](O)CCN1C1CCN(Cc2ccc3cc(Oc4ncc(-c5ccn[nH]5)cn4)ccc3c2)CC1` [Example 29, (S)-3-Hydroxy-1-(1-{6-[5-(2H-pyrazol-3-yl)-pyrimidin-2-yloxy]-naphthalen-2-ylmethyl}-piperidin-4-yl)-pyrrolidin-2-one], the figures for the IC50 (on human LTA4 hydrolase; in assay [1]) were 1.8 nM and 220 nM, respectively.

With `C[C@H](O)C(=O)N1CCN(Cc2ccc3cc(Oc4ncc(-c5ccn[nH]5)cn4)ccc3c2)CC1` [Example 30, (S)-2-Hydroxy-1-(4-{6-[5-(2H-pyrazol-3-yl)-pyrimidin-2-yloxy]-naphthalen-2-ylmethyl}-piperazin-1-yl)-propan-1-one], the IC50 at human LTA4 hydrolase was found to be 1.3 nM; in assay [1], 230 nM.

Take `CN(C(=O)CO)C1CCN(Cc2ccc3cc(Oc4ncc(-c5ccn[nH]5)cn4)ccc3c2)CC1` [Example 31, 2-Hydroxy-N-methyl-N-(1-{6-[5-(2H-pyrazol-3-yl)-pyrimidin-2-yloxy]-naphthalen-2-ylmethyl}-piperidin-4-yl)-acetamide]: the IC50 on human LTA4 hydrolase came to 1.5 nM; in assay [1] it was 270 nM.

Take `CC(=O)N1CC(CN(C)Cc2ccc3cc(Oc4ncc(-c5ccn[nH]5)cn4)ccc3c2)C1` [Example 32, 1-{3-[(Methyl-{6-[5-(2H-pyrazol-3-yl)-pyrimidin-2-yloxy]-naphthalen-2-ylmethyl}-amino)-methyl]-azetidin-1-yl}-ethanone]: the IC50 at human LTA4 hydrolase worked out at 1.1 nM; in assay [1] it was 180 nM.

As to `O=C1OCCN1C1CCN(Cc2ccc3cc(Oc4ncc(-c5ccn[nH]5)cn4)ccc3c2)CC1` [Example 33, 3-(1-{6-[5-(2H-Pyrazol-3-yl)-pyrimidin-2-yloxy]-naphthalen-2-ylmethyl}-piperidin-4-yl)-oxazolidin-2-one], the IC50 at human LTA4 hydrolase was 0.92 nM; in assay [1], 150 nM.

For the molecule `CN(C)C(=O)N1CCN(Cc2ccc3cc(Oc4ncc(-c5ccn[nH]5)cn4)ccc3c2)CC1` [Example 34, 4-{6-[5-(2H-Pyrazol-3-yl)-pyrimidin-2-yloxy]-naphthalen-2-ylmethyl}-piperazine-1-carboxylic acid dimethylamide], the IC50 is 0.81 nM against human LTA4 hydrolase and 430 nM in assay [1].

Regarding `CC(C)(C)C(=O)N1CCN(Cc2ccc3cc(Oc4ncc(-c5ccn[nH]5)cn4)ccc3c2)CC1` [Example 35, 2,2-Dimethyl-1-(4-{6-[5-(2H-pyrazol-3-yl)-pyrimidin-2-yloxy]-naphthalen-2-ylmethyl}-piperazin-1-yl)-propan-1-one], the IC50 on human LTA4 hydrolase came out at 2.7 nM; in assay [1] it was 950 nM.

With `O=C1CCCN1C1CCN(Cc2ccc3cc(Oc4ncc(-c5ccn[nH]5)cn4)ccc3c2)CC1` [Example 36, 1-(1-{6-[5-(2H-Pyrazol-3-yl)-pyrimidin-2-yloxy]-naphthalen-2-ylmethyl}-piperidin-4-yl)-pyrrolidin-2-one], the IC50 stood at 1.9 nM against human LTA4 hydrolase and 220 nM in assay [1].

Turning to `CCC(=O)N1CCN(Cc2ccc3cc(Oc4ncc(-c5ccn[nH]5)cn4)ccc3c2)CC1` [Example 37, 1-(4-{6-[5-(2H-Pyrazol-3-yl)-pyrimidin-2-yloxy]-naphthalen-2-ylmethyl}-piperazin-1-yl)-propan-1-one], the figures for the IC50 (against human LTA4 hydrolase; in assay [1]) were 0.43 nM and 120 nM, respectively.

In the case of `CN(C)C(=O)C1CCN(Cc2ccc3cc(Oc4ncc(-c5ccn[nH]5)cn4)ccc3c2)CC1` [Example 38, 1-{6-[5-(2H-Pyrazol-3-yl)-pyrimidin-2-yloxy]-naphthalen-2-ylmethyl}-piperidine-4-carboxylic acid dimethylamide], the results for the half-maximal inhibitory concentration (IC50) (against human LTA4 hydrolase; in assay [1]) were 1.2 nM and 180 nM, respectively.
